# Assay results reported in patent publication US11084800B2 (Achillion Pharmaceuticals, Inc., priority 2017, dated 2021).
# Biological target: Human Factor D (Homo sapiens (Human), UniProt P00746)
# Assay: Human Factor D Assay
# Assay type: biochemical
# Settings: Factor D inhibition, assay of Example 10; read-out: IC5 (Stars)
# How it was run: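 Serum-purified Factor D (80 nM final) preincubated 5 min at room temperature with compound in 50 mM Tris, 1 M NaCl, pH 7.5. Z-L-Lys-SBz and DTNB added at 100 μM each; A405 followed every 30 s for 30 min. IC50 from nonlinear regression of rates versus concentration.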
# Human Factor D, sequence (P00746 26-253): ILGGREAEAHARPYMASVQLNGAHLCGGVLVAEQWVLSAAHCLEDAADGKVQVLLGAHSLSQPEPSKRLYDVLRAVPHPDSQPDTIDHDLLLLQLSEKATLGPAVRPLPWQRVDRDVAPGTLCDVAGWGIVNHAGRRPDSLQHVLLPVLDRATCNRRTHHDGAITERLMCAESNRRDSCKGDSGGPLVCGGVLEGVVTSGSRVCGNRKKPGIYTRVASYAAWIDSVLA
row,Structure (SMILES),IC50 [nM]
1,"CC(=O)c1nn(CC(=O)N2[C@H](C(=O)Nc3cc(C#N)cc(Br)n3)C[C@@]3(C)C[C@@H]23)c2ccc(-c3cnc(C)nc3)cc12 [Compound 543, (1R,3S,5R)-2-(2-(3-acetyl-5-(2-methylpyrimidin-5-yl)-1H-indazol-1-yl)acetyl)-N-(6-bromo-4-cyanopyridin-2-yl)-5-methyl-2-azabicyclo[3.1.0]hexane-3-carboxamide]",< 1000
2,"CC(=O)c1nn(CC(=O)N2[C@H](C(=O)Nc3cc(-c4nnn[nH]4)cc(Br)n3)C[C@@]3(C)C[C@@H]23)c2ccc(-c3cnc(C)nc3)cc12 [Compound 544, (1R,3S,5R)-2-(2-(3-acetyl-5-(2-methylpyrimidin-5-yl)-1H-indazol-1-yl)acetyl)-N-(6-bromo-4-(1H-tetrazol-5-yl)pyridin-2-yl)-5-methyl-2-azabicyclo[3.1.0]hexane-3-carboxamide]",< 1000
3,"CC(=O)c1nn(CC(=O)N2[C@H](C(=O)Nc3cc(CCC(C)C)cc(Br)n3)C[C@@]3(C)C[C@@H]23)c2ccc(-c3cnc(C)nc3)cc12 [Compound 545, (1R,3S,5R)-2-(2-(3-acetyl-5-(2-methylpyrimidin-5-yl)-1H-indazol-1-yl)acetyl)-N-(6-bromo-4-isopentylpyridin-2-yl)-5-methyl-2-azabicyclo[3.1.0]hexane-3-carboxamide]",< 1000
4,"COCc1cc(Br)nc(NC(=O)[C@@H]2C[C@@]3(C)C[C@H]3N2C(=O)Cn2nc(C(C)=O)c3cc(-c4cnc(C)nc4)ccc32)c1 [Compound 546, (1R,3S,5R)-2-(2-(3-acetyl-5-(2-methylpyrimidin-5-yl)-1H-indazol-1-yl)acetyl)-N-(6-bromo-4-(methoxymethyl)pyridin-2-yl)-5-methyl-2-azabicyclo[3.1.0]hexane-3-carboxamide]",< 1000
5,"CC(=O)c1nn(CC(=O)N2[C@H](C(=O)Nc3cc(-c4ccccc4)cc(Br)n3)C[C@@]3(C)C[C@@H]23)c2ccc(-c3cnc(C)nc3)cc12 [Compound 547, (1R,3S,5R)-2-(2-(3-acetyl-5-(2-methylpyrimidin-5-yl)-1H-indazol-1-yl)acetyl)-N-(6-bromo-4-phenylpyridin-2-yl)-5-methyl-2-azabicyclo[3.1.0]hexane-3-carboxamide]",< 1000
6,CC(=O)c1nn(CC(=O)N2[C@H](C(=O)Nc3cc(CCc4ccccc4)cc(Br)n3)C[C@@]3(C)C[C@@H]23)c2ccc(-c3cnc(C)nc3)cc12 [Compound 548],< 1000
7,"CCCCc1cc(Br)nc(NC(=O)[C@@H]2C[C@@]3(C)C[C@H]3N2C(=O)Cn2nc(C(C)=O)c3cc(-c4cnc(C)nc4)ccc32)c1 [Compound 549, (1R,3S,5R)-2-(2-(3-acetyl-5-(2-methylpyrimidin-5-yl)-1H-indazol-1-yl)acetyl)-N-(6-bromo-4-butylpyridin-2-yl)-5-methyl-2-azabicyclo[3.1.0]hexane-3-carboxamide]",< 1000
8,"CC(=O)c1nn(CC(=O)N2[C@H](C(=O)Nc3cc(C(F)(F)F)cc(Br)n3)C[C@@]3(C)C[C@@H]23)c2ccc(-c3cnc(C)nc3)cc12 [Compound 550, (1R,3S,5R)-2-(2-(3-acetyl-5-(2-methylpyrimidin-5-yl)-1H-indazol-1-yl)acetyl)-N-(6-bromo-4-(trifluoromethyl)pyridin-2-yl)-5-methyl-2-azabicyclo[3.1.0]hexane-3-carboxamide]",< 1000
9,"CC(=O)c1nn(CC(=O)N2[C@H](C(=O)NCCC(C)(C)C)C[C@@]3(C)C[C@@H]23)c2ccc(-c3cnc(C)nc3)cc12 [Compound 552, (1R,3S,5R)-2-(2-(3-acetyl-5-(2-methylpyrimidin-5-yl)-1H-indazol-1-yl)acetyl)-N-(3,3-dimethylbutyl)-5-methyl-2-azabicyclo[3.1.0]hexane-3-carboxamide]",< 1000
10,"CC(=O)c1nn(CC(=O)N2[C@H](C(=O)N[C@@H](C)c3ccccc3)C[C@@]3(C)C[C@@H]23)c2ccc(-c3cnc(C)nc3)cc12 [Compound 553, (1R,3S,5R)-2-(2-(3-acetyl-5-(2-methylpyrimidin-5-yl)-1H-indazol-1-yl)acetyl)-5-methyl-N-((S)-1-phenylethyl)-2-azabicyclo[3.1.0]hexane-3-carboxamide]",< 1000
11,"CC(=O)c1nn(CC(=O)N2[C@H](C(=O)N[C@@H](C)COC(F)(F)F)C[C@@]3(C)C[C@@H]23)c2ccc(-c3cnc(C)nc3)cc12 [Compound 554, (1R,3S,5R)-2-(2-(3-acetyl-5-(2-methylpyrimidin-5-yl)-1H-indazol-1-yl)acetyl)-5-methyl-N-((S)-1-(trifluoromethoxy)propan-2-yl)-2-azabicyclo[3.1.0]hexane-3-carboxamide]",< 1000
12,"CC(=O)c1nn(CC(=O)N2[C@H](C(=O)Nc3cc(Cc4ccccc4)cc(Br)n3)C[C@@]3(C)C[C@@H]23)c2ccc(-c3cnc(C)nc3)cc12 [Compound 555, (1R,5R)-2-(2-(3-acetyl-5-(2-methylpyrimidin-5-yl)-1H-indazol-1-yl)acetyl)-N-(4-benzyl-6-bromopyridin-2-yl)-5-methyl-2-azabicyclo[3.1.0]hexane-3-carboxamide]",< 1000
13,"CC(=O)c1nn(CC(=O)N2[C@H](C(=O)Nc3cc(-c4ccccc4O)cc(Br)n3)C[C@@]3(C)C[C@@H]23)c2ccc(-c3cnc(C)nc3)cc12 [Compound 556, (1R,3S,5R)-2-(2-(3-acetyl-5-(2-methylpyrimidin-5-yl)-1H-indazol-1-yl)acetyl)-N-(6-bromo-4-(2-hydroxyphenyl)pyridin-2-yl)-5-methyl-2-azabicyclo[3.1.0]hexane-3-carboxamide]",< 1000
14,"CC(=O)c1nn(CC(=O)N2[C@H](C(=O)Nc3cc(COCc4ccccc4)cc(Br)n3)C[C@@]3(C)C[C@@H]23)c2ccc(-c3cnc(C)nc3)cc12 [Compound 557, (1R,3S,5R)-2-(2-(3-acetyl-5-(2-methylpyrimidin-5-yl)-1H-indazol-1-yl)acetyl)-N-(4-6-bromopyridin-2-yl)-5-methyl-2-azabicyclo[3.1.0]hexane-3-carboxamide]",< 1000
15,"CC(=O)c1nn(CC(=O)N2[C@H](C(=O)N[C@H](C)c3ccccc3)C[C@@]3(C)C[C@@H]23)c2ccc(-c3cnc(C)nc3)cc12 [Compound 558, (1R,3S,5R)-2-(2-(3-acetyl-5-(2-methylpyrimidin-5-yl)-1H-indazol-1-yl)acetyl)-5-methyl-N-((R)-1-phenylethyl)-2-azabicyclo[3.1.0]hexane-3-carboxamide]",< 1000
16,"CC(=O)c1nn(CC(=O)N2[C@H](C(=O)NC/C(F)=C(/C)c3ccccc3)C[C@@]3(C)C[C@@H]23)c2ccc(-c3cnc(C)nc3)cc12 [Compound 559, (1R,3S,5R)-2-(2-(3-acetyl-5-(2-methylpyrimidin-5-yl)-1H-indazol-1-yl)acetyl)-N-((E)-2-fluoro-3-phenylbut-2-en-1-yl)-5-methyl-2-azabicyclo[3.1.0]hexane-3-carboxamide]",< 1000
17,CC(=O)c1cn(CC(=O)N2[C@H](C(=O)NC/C(F)=C(/C)c3ccccc3)C[C@@]3(C)C[C@@H]23)c2cnc(-c3cnc(C)nc3)cc12 [Compound 560],< 1000
18,"CC(=O)c1nn(CC(=O)N2[C@H](C(=O)NC/C(F)=C(/C)c3ccccc3)C[C@@]3(C)C[C@@H]23)c2c(C)cc(-c3cnc(C)nc3)cc12 [Compound 561, (1R,3S,5R)-2-(2-(3-acetyl-7-methyl-5-(2 methylpyrimidin-5-yl)-1H-indazol-1-yl)acetyl)-N-((E)-2-fluoro-3-phenylbut-2-en-1-yl)-5-methyl-2-azabicyclo[3.1.0]hexane-3-carboxamide]",< 1000
19,"Cc1ncc(-c2ccc3c(c2)c(C(=O)NC(C)C)nn3CC(=O)N2[C@H](C(=O)Nc3nc(Br)ccc3C)C[C@@]3(C)C[C@@H]23)cn1 [Compound 562, 1-(2-((1R,3S,5R)-3-((6-bromo-3-methylpyridin-2-yl)carbamoyl)-5-methyl-2-azabicyclo[3.1.0]hexan-2-yl)-2-oxoethyl)-N-isopropyl-5-(2-methylpyrimidin-5-yl)-1H-indazole-3-carboxamide]",1000 to 10000
20,"CC(=O)c1nn(CC(=O)N2[C@H](C(=O)Nc3cc(CC(F)(F)F)cc(Br)n3)C[C@@]3(C)C[C@@H]23)c2ccc(-c3cnc(C)nc3)cc12 [Compound 572, (1R,3S,5R)-2-(2-(3-acetyl-5-(2-methylpyrimidin-5-yl)-1H-indazol-1-yl)acetyl)-N-(6-bromo-4-(2,2,2-trifluoroethyl)pyridin-2-yl)-5-methyl-2-azabicyclo[3.1.0]hexane-3-carboxamide]",< 1000
21,"CC(=O)c1nn(CC(=O)N2[C@H](C(=O)NCCOC(F)(F)F)C[C@@]3(C)C[C@@H]23)c2ccc(-c3cnc(C)nc3)cc12 [Compound 579, (1R,3S,5R)-2-(2-(3-acetyl-5-(2-methylpyrimidin-5-yl)-1H-indazol-1-yl)acetyl)-5-methyl-N-(2-(trifluoromethoxy)ethyl)-2-azabicyclo[3.1.0] hexane-3-carboxamide]",< 1000
22,"CC(=O)c1nn(CC(=O)N2[C@H](C(=O)N[C@@H](C)CC(C)(C)C)C[C@@]3(C)C[C@@H]23)c2ccc(-c3cnc(C)nc3)cc12 [Compound 588, (1R,3S,5R)-2-(2-(3-acetyl-5-(2-methylpyrimidin-5-yl)-1H-indazol-1-yl)acetyl)-N-((S)-4,4-dimethylpentan-2-yl)-5-methyl-2-azabicyclo[3.1.0]hexane-3-carboxamide]",1000 to 10000
23,"CC(=O)c1nn(CC(=O)N2[C@H](C(=O)N[C@H](C)CC(C)(C)C)C[C@@]3(C)C[C@@H]23)c2ccc(-c3cnc(C)nc3)cc12 [Compound 589, (1R,3S,5R)-2-(2-(3-acetyl-5-(2-methylpyrimidin-5-yl)-1H-indazol-1-yl)acetyl)-N-((R)-4,4-dimethylpentan-2-yl)-5-methyl-2-azabicyclo[3.1.0]hexane-3-carboxamide]",< 1000

# Same assay, conditions: Table 8; Factor D 80 nM, substrate Z-L-Lys-SBz; read-out: IC50
row,Structure (SMILES),IC50 [nM]
1,"CCC(C)NC(=O)c1nn(CC(=O)N2[C@H](C(=O)Nc3nc(Br)ccc3C)C[C@@]3(C)C[C@@H]23)c2ccc(-c3cnc(C)nc3)cc12 (stereo partly drawn) [Compound 569, 1-(2-((1R,3S,5R)-3-((6-bromo-3-methylpyridin-2-yl)carbamoyl)-5-methyl-2-azabicyclo[3.1.0]hexan-2-yl)-2-oxoethyl)-N-(sec-butyl)-5-(2-methylpyrimidin-5-yl)-1H-indazole-3-carboxamide]",1000 to 10000
